Measured values published in patent US11427563B2, “Aryl cyclopropyl-amino-isoquinolinyl amide compounds” (Aerie Pharmaceuticals, Inc., priority 2018, dated 2022).

Columns and labels:
JAK3 enzyme = JAK3 enzyme (Homo sapiens (Human), UniProt P52333); test: JAK kinase assay (JAK3); type: biochemical; settings: for IC50: Table 1
IKKβ = IKKβ (Homo sapiens (Human), UniProt O14920); test: IKKβ inhibition; type: biochemical; settings: for IC50: Table 1
ROCK2 enzyme = ROCK2 enzyme (Homo sapiens (Human), UniProt O75116); test: ROCK kinase inhibition assay (ROCK2); type: biochemical; settings: for IC50: Table 1
ROCK1 enzyme = ROCK1 enzyme (Homo sapiens (Human), UniProt Q13464); test: ROCK kinase inhibition assay (ROCK1); type: biochemical; settings: Table 1
Sequence of ROCK1 enzyme (Q13464 whole entry, species assumed): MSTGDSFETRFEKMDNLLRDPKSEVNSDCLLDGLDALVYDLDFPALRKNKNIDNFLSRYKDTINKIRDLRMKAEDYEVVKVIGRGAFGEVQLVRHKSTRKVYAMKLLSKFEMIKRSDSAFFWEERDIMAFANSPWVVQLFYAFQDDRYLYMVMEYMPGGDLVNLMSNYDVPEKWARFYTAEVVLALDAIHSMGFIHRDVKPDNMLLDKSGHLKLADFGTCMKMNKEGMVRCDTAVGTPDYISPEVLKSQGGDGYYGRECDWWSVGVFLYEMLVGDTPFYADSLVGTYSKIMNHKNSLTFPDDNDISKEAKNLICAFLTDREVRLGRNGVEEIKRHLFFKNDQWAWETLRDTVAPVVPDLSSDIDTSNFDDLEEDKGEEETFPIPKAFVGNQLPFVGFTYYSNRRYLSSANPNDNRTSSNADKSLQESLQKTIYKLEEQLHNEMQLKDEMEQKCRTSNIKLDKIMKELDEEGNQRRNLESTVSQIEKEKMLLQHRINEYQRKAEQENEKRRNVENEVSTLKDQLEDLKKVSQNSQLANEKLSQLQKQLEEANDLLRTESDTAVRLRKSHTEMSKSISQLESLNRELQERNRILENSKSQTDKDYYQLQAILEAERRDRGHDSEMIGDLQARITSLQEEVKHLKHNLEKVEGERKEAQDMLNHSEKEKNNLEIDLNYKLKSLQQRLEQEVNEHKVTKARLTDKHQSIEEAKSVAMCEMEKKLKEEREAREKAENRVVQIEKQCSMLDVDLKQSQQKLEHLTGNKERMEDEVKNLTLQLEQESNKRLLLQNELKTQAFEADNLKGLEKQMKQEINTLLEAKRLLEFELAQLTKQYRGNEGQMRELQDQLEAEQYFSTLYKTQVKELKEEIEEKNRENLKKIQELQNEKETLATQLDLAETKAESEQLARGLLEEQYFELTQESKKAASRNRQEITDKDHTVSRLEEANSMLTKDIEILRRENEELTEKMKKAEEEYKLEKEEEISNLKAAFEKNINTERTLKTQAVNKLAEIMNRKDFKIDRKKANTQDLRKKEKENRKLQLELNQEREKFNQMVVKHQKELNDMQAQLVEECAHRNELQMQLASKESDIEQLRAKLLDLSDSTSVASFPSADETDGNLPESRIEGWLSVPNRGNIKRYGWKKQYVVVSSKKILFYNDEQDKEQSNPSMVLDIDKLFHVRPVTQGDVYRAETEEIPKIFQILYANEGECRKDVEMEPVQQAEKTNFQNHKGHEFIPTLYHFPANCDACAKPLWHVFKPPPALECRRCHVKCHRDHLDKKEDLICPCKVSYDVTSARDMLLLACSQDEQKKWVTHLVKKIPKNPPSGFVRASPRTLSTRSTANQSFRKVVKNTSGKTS

TYK2 = TYK2 (Homo sapiens (Human), UniProt P29597); test: TYK2 inhibition; type: biochemical; settings: Table 1
Sequence of TYK2 (P29597 whole entry, species assumed): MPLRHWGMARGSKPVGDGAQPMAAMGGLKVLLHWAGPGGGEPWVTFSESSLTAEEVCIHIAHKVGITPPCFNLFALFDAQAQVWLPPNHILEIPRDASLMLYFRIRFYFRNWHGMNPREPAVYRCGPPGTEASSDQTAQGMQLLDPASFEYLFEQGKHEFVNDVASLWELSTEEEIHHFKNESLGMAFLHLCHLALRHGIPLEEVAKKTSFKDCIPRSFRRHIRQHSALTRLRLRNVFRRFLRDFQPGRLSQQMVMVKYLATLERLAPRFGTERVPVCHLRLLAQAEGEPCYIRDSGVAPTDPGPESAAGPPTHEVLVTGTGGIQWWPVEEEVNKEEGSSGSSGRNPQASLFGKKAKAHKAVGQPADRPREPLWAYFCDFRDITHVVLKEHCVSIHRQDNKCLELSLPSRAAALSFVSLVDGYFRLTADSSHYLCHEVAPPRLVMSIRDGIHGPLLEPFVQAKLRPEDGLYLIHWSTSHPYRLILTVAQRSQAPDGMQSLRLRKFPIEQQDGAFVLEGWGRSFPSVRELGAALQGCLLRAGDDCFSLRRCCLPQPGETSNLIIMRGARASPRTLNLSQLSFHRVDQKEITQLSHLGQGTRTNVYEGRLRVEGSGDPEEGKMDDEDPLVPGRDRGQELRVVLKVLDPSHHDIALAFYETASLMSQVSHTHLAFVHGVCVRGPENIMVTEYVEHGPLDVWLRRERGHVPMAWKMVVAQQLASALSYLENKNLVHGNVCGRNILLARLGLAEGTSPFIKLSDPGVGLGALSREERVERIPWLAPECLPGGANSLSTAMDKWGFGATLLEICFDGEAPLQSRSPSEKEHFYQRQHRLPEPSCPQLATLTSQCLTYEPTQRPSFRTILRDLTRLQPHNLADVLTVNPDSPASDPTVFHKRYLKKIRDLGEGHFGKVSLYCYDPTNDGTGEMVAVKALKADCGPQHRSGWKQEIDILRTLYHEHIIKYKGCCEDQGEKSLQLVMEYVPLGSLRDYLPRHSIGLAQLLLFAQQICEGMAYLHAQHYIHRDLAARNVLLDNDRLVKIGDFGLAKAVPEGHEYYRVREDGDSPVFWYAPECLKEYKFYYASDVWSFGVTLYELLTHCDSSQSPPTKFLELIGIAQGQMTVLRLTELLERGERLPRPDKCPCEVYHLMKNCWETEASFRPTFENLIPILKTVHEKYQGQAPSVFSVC

Stat5 = Stat5 assay; type: cell-based; settings: Table 1
[1] = test system: Porcine Trabecular Meshwork cells (PTM); test: PTM-HTM assay (actin fiber length in PTM cells); type: cell-based; settings: Sus scrofa; Table 2
Description: Porcine Trabecular Meshwork cells (PTM) were isolated from freshly obtained enucleated porcine eyes. Immortalized Human Trabecular Meshwork cells (TM-1) were obtained through a kind gift from Donna Peters in the Department of Ophthalmology and Visual Sciences at the University of Wisconsin. Cells were plated onto fibronectin coated glass-bottom 96-well plates and allowed to attach overnight. Media was removed and replaced with test compound in media with 1% fetal bovine serum and incubated for various times. After incubation, cells were formaldehyde fixed, triton solubilized, and stained. PTM cells were stained with Alexa Fluor®488 phalloidin (F-actin) and Hoechst 33342 (nuclei). TM-1 cells were stained with anti-paxillin followed by Alexa Fluor®488 goat-anti-mouse IgG (focal adhesions) and Hoechst 33342 (nuclei). All staining reagents were obtained through Invitrogen. Images were collected on an INCell 2200 imager with a 20× objective. The actin fiber length and total area of focal adhesions were analyzed using custom algorithms developed in the INCell Developer Toolbox, v1.9.3. Data collected were converted to percent of control (untreated cells). Curves were fit to data in GraphPad Prizm using sigmoidal dose-response and constraining top and bottom to 100% and 0%, respectively.

[2] = Table 2, Ki from IC50 by Cheng-Prusoff

Sequence of JAK3 enzyme (P52333 whole entry, species assumed): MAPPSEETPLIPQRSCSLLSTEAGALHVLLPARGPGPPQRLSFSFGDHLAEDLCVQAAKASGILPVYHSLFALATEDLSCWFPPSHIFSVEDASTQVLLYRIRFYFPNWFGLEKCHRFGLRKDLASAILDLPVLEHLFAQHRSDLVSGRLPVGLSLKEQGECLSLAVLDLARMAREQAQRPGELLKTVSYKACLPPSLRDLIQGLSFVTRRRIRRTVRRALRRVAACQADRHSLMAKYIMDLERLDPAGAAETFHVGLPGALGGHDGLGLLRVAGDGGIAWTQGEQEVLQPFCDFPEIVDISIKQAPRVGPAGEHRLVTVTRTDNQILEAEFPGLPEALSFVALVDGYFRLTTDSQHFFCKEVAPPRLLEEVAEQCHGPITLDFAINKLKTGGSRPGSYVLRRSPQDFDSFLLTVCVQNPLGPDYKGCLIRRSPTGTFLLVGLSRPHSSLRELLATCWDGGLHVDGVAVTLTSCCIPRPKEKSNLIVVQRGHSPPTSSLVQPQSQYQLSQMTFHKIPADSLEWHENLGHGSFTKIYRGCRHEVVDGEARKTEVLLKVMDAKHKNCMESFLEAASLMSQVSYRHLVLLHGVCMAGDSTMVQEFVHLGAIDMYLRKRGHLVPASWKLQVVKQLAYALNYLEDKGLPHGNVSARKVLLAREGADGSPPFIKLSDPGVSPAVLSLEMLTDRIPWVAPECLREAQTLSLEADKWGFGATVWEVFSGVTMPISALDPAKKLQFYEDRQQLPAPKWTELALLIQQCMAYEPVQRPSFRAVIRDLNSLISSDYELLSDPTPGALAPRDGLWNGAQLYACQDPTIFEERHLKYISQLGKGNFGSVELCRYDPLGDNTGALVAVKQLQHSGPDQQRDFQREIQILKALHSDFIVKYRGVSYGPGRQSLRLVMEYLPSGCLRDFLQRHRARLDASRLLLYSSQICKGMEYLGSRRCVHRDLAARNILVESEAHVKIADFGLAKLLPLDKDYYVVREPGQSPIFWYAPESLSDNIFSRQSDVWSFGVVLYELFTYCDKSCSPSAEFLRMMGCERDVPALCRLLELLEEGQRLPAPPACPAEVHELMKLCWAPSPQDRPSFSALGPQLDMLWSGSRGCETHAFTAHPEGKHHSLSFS
Sequence of IKKβ (O14920 whole entry, species assumed): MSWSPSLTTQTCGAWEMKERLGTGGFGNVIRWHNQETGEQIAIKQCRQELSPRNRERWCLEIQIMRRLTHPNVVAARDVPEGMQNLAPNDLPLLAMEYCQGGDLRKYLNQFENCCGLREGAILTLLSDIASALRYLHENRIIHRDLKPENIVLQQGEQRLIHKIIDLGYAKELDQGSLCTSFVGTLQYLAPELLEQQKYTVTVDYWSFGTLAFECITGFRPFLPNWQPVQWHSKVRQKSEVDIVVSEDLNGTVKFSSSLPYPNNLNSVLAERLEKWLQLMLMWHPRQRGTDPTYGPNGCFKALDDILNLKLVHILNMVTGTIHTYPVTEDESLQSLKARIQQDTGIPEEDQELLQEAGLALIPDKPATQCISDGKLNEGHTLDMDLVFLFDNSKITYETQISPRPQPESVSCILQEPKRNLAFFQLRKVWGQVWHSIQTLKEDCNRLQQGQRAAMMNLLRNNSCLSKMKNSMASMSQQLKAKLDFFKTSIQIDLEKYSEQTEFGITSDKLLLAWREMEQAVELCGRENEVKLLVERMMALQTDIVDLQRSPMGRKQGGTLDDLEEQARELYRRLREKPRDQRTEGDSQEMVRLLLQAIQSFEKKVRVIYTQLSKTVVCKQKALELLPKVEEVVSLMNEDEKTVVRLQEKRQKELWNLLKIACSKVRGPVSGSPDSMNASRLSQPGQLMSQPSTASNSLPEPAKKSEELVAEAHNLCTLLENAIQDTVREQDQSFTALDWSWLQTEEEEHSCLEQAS

| Structure (SMILES) | IC50 (JAK3 enzyme) [nM] | IC50 (IKKβ) [nM] | IC50 (ROCK2 enzyme) [nM] | IC50 (ROCK1 enzyme) [nM] | IC50 (TYK2) [nM] | Ki (JAK3 enzyme; [2]) [nM] | IC50 [1] [nM] | Ki (IKKβ; Table 2) [nM] | Ki (ROCK2 enzyme; [2]) [nM] | IC50 (Stat5) [nM] |
| --- | --- | --- | --- | --- | --- | --- | --- | --- | --- | --- |
| O=C(Nc1ccc2cnccc2c1)[C@@H]1CC1c1ccc(S(=O)(=O)Nc2ccccn2)c(F)c1 (stereo partly shown) [Compound 18] | 19.5 | 17.5 | 4 | 6.4 |  |  |  |  |  |  |
| CCc1cncc2ccc(NC(=O)[C@@H]3CC3c3ccc(S(=O)(=O)Nc4ccccn4)cc3)cc12 (stereo partly shown) [Compound 17] | 4.2 |  | 45 | 44 |  |  |  |  |  |  |
| Cc1cncc2ccc(NC(=O)[C@@H]3C[C@H]3c3ccc(S(=O)(=O)NC4CCNC4)cc3)cc12 (stereo partly shown) [Compound 12] | 175 | 759 | 21 | 21 |  |  |  |  |  |  |
| Cc1cncc2ccc(NC(=O)[C@@H]3C[C@H]3c3ccc(S(=O)(=O)NC4CCCNC4)cc3)cc12 (stereo partly shown) [Compound 13] | 179 | 825 | 15 | 18 |  |  |  |  |  |  |
| Cc1cncc2ccc(NC(=O)[C@@H]3C[C@H]3c3ccc(S(=O)(=O)Nc4ncc(C5CCNCC5)cn4)cc3)cc12 [Compound 1] | 148 | 1130 | 4.9 | 16 |  |  |  |  |  |  |
| O=C(Nc1ccc2cncc(C(F)(F)F)c2c1)[C@@H]1C[C@H]1c1ccc(S(=O)(=O)Nc2ccccn2)cc1 [Compound 14] | 9 | 16 | 108 | 122 |  |  |  |  |  |  |
| O=C(Nc1ccc2cnccc2c1F)[C@@H]1C[C@H]1c1ccc(S(=O)(=O)Nc2cccnc2)cc1 [Compound 29] | 350 | > 5000 | 13.8 | 43 |  |  |  |  |  |  |
| Cc1cncc2ccc(NC(=O)[C@@H]3C[C@H]3c3ccc(S(=O)(=O)Nc4cncc(C5=CCNCC5)n4)cc3)cc12 [Compound 11] | 135 | 765 | 15 | 153 |  |  |  |  |  |  |
| Cc1cncc2ccc(NC(=O)[C@@H]3CC3c3ccc(S(=O)(=O)Nc4cnccn4)cc3)cc12 (stereo partly shown) [Compound 10] | 14 | 105 | 74 | 220 |  |  |  |  |  | > 1000 |
| O=C(Nc1ccc2cncc(C(F)(F)F)c2c1)[C@@H]1CC1c1ccc(S(=O)(=O)Nc2ncccn2)cc1 (stereo partly shown) [Compound 9] | 8.2 | 14 | 1160 | 1570 |  |  |  |  |  |  |
| O=C(Nc1ccc2cnccc2c1)[C@@H]1CC1c1cc(F)ccc1S(=O)(=O)Nc1ccccn1 (stereo partly shown) [Compound 19] | 6750 |  |  | 7400 |  |  |  |  |  |  |

Now from value to compound, other results behind:

| IC50 (JAK3 enzyme) [nM] | IC50 (IKKβ) [nM] | IC50 (ROCK2 enzyme) [nM] | IC50 (ROCK1 enzyme) [nM] | IC50 (TYK2) [nM] | Ki (JAK3 enzyme; [2]) [nM] | IC50 [1] [nM] | Ki (IKKβ; Table 2) [nM] | Ki (ROCK2 enzyme; [2]) [nM] | Structure (SMILES) | IC50 (Stat5) [nM] |
| --- | --- | --- | --- | --- | --- | --- | --- | --- | --- | --- |
| 3.9 | 7.3 | 93 | 121 |  |  |  |  |  | Cc1cncc2ccc(NC(=O)[C@@H]3CC3c3ccc(S(=O)(=O)Nc4ncc(F)cn4)cc3)cc12 (stereo partly shown) [Compound 8] |  |
| 19 |  | 44 |  | 98 |  |  |  |  | Cc1cncc2ccc(NC(=O)[C@@H]3C[C@H]3c3ccc(S(=O)(=O)Nc4cccnc4)cc3)cc12 [Compound 27] |  |
| 5.8 | 3.6 | 880 | 1090 |  |  |  |  |  | CCc1cncc2ccc(NC(=O)[C@@H]3C[C@H]3c3ccc(S(=O)(=O)Nc4ncccn4)cc3)cc12 [Compound 7] |  |
| 2.9 | 70 | 25 | 74 | 12 |  |  |  |  | O=C(Nc1ccc2cncc(Cl)c2c1)[C@@H]1CC1c1ccc(S(=O)(=O)Nc2ccc(F)cn2)cc1 (mixture of isomers) [Compound 16b] |  |
|  |  |  |  | 34 |  |  |  |  | Cc1cncc2ccc(NC(=O)[C@@H]3C[C@H]3c3ccc(S(=O)(=O)Nc4cnccn4)cc3)cc12 [Compound 10] |  |
| 2.4 | 6.9 | 20 | 30 |  |  |  |  |  | N#Cc1cncc2ccc(NC(=O)[C@@H]3CC3c3ccc(S(=O)(=O)Nc4ccccn4)cc3)cc12 (stereo partly shown) [Compound 20] |  |
| 18 | 381 | 67 | 160 | 210 |  |  |  |  | O=C(Nc1ccc2cncc(Cl)c2c1)[C@@H]1CC1c1ccc(S(=O)(=O)Nc2cccnc2)cc1 (stereo partly shown) [Compound 28] | 57 |
|  |  |  |  |  | 211 | 12 | 1190 | 1 | CN(C)Cc1ccc(NC(=O)c2cccc([C@@H]3C[C@H]3C(=O)Nc3ccc4cncc(Cl)c4c3)c2)nc1 [Compound 36] |  |
| 4.8 | 88 | 56 | 156 | 7 |  |  |  |  | O=C(Nc1ccc2cncc(Cl)c2c1)[C@@H]1CC1c1ccc(S(=O)(=O)Nc2ccc(F)cn2)cc1 (mixture of isomers) [Compound 16a] |  |
|  |  |  |  |  |  | 650 |  |  | O=C(Nc1cccnn1)c1ccc(C2C[C@H]2C(=O)Nc2ccc3cnccc3c2)cc1 (stereo partly shown) [Compound 175] |  |
|  | 159 |  |  |  |  |  |  |  | Cc1cncc2ccc(NC(=O)[C@@H]3CC3c3ccc(S(=O)(=O)Nc4cccnc4)cc3)cc12 (stereo partly shown) [Compound 27] |  |
| 3.4 | 5 | 12.3 | 20 |  |  |  |  |  | Cc1cncc2ccc(NC(=O)[C@@H]3C[C@H]3c3ccc(S(=O)(=O)Nc4nccs4)cc3)cc12 [Compound 32] |  |
| 4.8 | 88 | 56 | 156 |  |  |  |  |  | O=C(Nc1ccc2cncc(Cl)c2c1)[C@@H]1C[C@H]1c1ccc(S(=O)(=O)Nc2ccc(F)cn2)cc1 [Compound 15] |  |
|  | 4.1 | 68 | 128 |  |  |  |  |  | O=C(Nc1ccc2cncc(Cl)c2c1)[C@@H]1C[C@H]1c1ccc(S(=O)(=O)Nc2ncccn2)cc1 [Compound 6] |  |
